Where two headings read alike, the source gives them in different places.
Legend:
[1] = concentrations of the order of tens of μM; cited from earlier work
[2] = system: macrophages IC-21; experiment: Binding of 2-μm non-opsonized latex particles by macrophages; type: cell-based, mouse
[3] = system: macrophages IC-21; type: cell-based, mouse
[4] = system: macrophages IC-21; details: peptide at 50 μM, IC-21 cells, 1 h
[5] = system: hepatitis C virus; details: in vitro; cited from earlier work

ATVLNYYVWRDNS
Toxicity [1]: not toxic

Ac-EWGMAVLWERNRKLKKDLKVLKMLRT-NH2 [Mut1]
Number of particles per cell, % of the control ([2]; Mut1 at 2–10 μM, 7 independent experiments): ~ 160 % of the control
Concentration range at which maximal stimulatory effect was observed ([2]; number of particles per cell, IC-21, 1 h at 37°C, peptide range 0.5 to 50 μM): 4 to 5 µM
Phagocytic index relative to control ([2]; peptide at 50 μM, 7 independent experiments): returned to the control level
Number of particles per cell, % of the control ([3]; peptide at 2 μM, cells not treated with mβCD, representative experiment (Fig. 5)): 134 % of the control
Toxic effect on cells [4]: did not exert a toxic effect

Ac-STKLSEMLSELGNMDKASKLSRKLSR-NH2 [Mut2]
Change in the phagocytosis index ([2]; concentration range from 0.5 to 50 μM, 6 independent experiments for each peptide): did not cause significant changes
Toxic effect on cells [4]: not toxic

SWLRDIWDWICEVLSDFK [C5A]
Suppression of virus production [5]: more than 5 orders of magnitude

VLNYYVW
Toxicity [1]: not toxic

methyl-β-cyclodextrin [mβCD, reference compound]
Cell activity, % of the control ([3]; 3.7 mM mβCD, without a peptide, representative experiment, p < 0.001): 121 % of the control
